According to patent US20260055111A1, “CRYSTALLINE FORM OF PYRAZOLOPYRIMIDINE ESTER COMPOUND AND METHODS OF PREPARING THE SAME” (Shanghai Maius Pharmaceutical Co. Ltd., priority 2022, published 2026):
“Also recorded” adds a separate entry of the source.

Legend:
[1] = cited from earlier work
[2] = Stability study: change in purity of solid forms after storage under different conditions; format: physicochemical; settings: for Purity, Initial (Day 0): before storage; for Overall stability / degree of degradation compared with other forms: forced degradation conditions of the stability study; for Purity, Room Temperature (Day 10): stored at room temperature for 10 days; for Purity, In Light (Day 10): stored in light for 10 days
Description: Samples of the amorphous and crystalline (Forms I and II) compound of formula (I) were stored under different conditions.
Storage conditions for the crystalline form Form II: at 60° C. for 10 days; at 60° C. and 75% RH (relative humidity) for 10 days; in light for 10 days; and at room temperature for 10 days.
Storage conditions for the amorphous and crystalline (Form I) forms: at 40° C. for 10 days; at 60° C. and 75% RH for 10 days; in light for 10 days; and at room temperature for 10 days.

[3] = Hygroscopicity by dynamic vapor sorption (DVS), with XRPD before and after; format: physicochemical
[4] = stored at 60° C. and 75% RH for 10 days
[5] = stored at room temperature and in light for 10 days

Structure (SMILES) | 4-AAM AUC ([1]; AUC of the active metabolite 4-AAM, among the prodrugs of CN 202111131059.0) | AUC of the prodrug itself ([1]; among the prodrugs of CN 202111131059.0) | Rate of hydrolysis in blood ([1]; among the pyrazolopyrimidine ester prodrugs of CN 202111131059.0) | Purity, Initial (Day 0) [2] | Overall stability / degree of degradation compared with other forms [2] | Purity, 40° C. (Day 10) ([2]; stored at 40° C. for 10 days) | Degradation in words ([2]; stored at 40° C. for 10 days, listed as amorphous) | Degradation in words ([2]; stored at 40° C. for 10 days, listed as amorphous compound) | Degradation in words [2, 4] | Purity, 60° C. + 75% RH (Day 10) [2, 4] | Purity, Room Temperature (Day 10) [2] | Purity, In Light (Day 10) [2] | Hygroscopicity [3] | Stability in words [2, 5] | XRPD pattern before and after the DVS determination [3] | Stability in words ([2]; degradation conditions such as high-temperature and high-humidity) | Purity, 60° C. (Day 10) ([2]; stored at 60° C. for 10 days)
C=CC(=O)N1CCC[C@@H](n2nc(-c3ccc(Oc4ccccc4)cc3)c3c(NC(=O)OCCCC)ncnc32)C1 [formula (I), 1-[(3R)-3-[4-(butoxycarbonyl)-amino-3-(4-phenoxyphenyl)-1H-pyrazolo[3,4-d]pyrimidin-1-yl]-1-piperidinyl]-2-propen-1-one] | highest | lowest | most rapidly | – | – | – | – | – | – | – | – | – | – | – | – | – | –
C=CC(=O)N1CCC[C@@H](n2nc(-c3ccc(Oc4ccccc4)cc3)c3c(NC(=O)OCCCC)ncnc32)C1 [Amorphous, 1-[(3R)-3-[4-(butoxycarbonyl)-amino-3-(4-phenoxyphenyl)-1H-pyrazolo[3,4-d]pyrimidin-1-yl]-1-piperidinyl]-2-propen-1-one] | – | – | – | 99.07% | poor stability | 96.10% | Noticeable degradation | Significant degradation | almost complete degradation | 0.27% | 98.01% | 98.63% | – | – | – | – | –
C=CC(=O)N1CCC[C@@H](n2nc(-c3ccc(Oc4ccccc4)cc3)c3c(NC(=O)OCCCC)ncnc32)C1 [Form I, 1-[(3R)-3-[4-(butoxycarbonyl)-amino-3-(4-phenoxyphenyl)-1H-pyrazolo[3,4-d]pyrimidin-1-yl]-1-piperidinyl]-2-propen-1-one] | – | – | – | 98.68% | lower degrees of degradation than the amorphous form | 98.60% | – | – | – | 90.62% | 98.64% | 98.62% | almost non-hygroscopic | very stable; also recorded: remaining stable | – | – | –
C=CC(=O)N1CCC[C@@H](n2nc(-c3ccc(Oc4ccccc4)cc3)c3c(NC(=O)OCCCC)ncnc32)C1 [Form II, 1-[(3R)-3-[4-(butoxycarbonyl)-amino-3-(4-phenoxyphenyl)-1H-pyrazolo[3,4-d]pyrimidin-1-yl]-1-piperidinyl]-2-propen-1-one] | – | – | – | 99.13% | lower degree of degradation than the amorphous form; also recorded: obviously better than the amorphous form and even better than Form I | – | – | – | – | 97.80% | 99.13% | 99.17% | – | more stable | remained the same | stable | 98.90%
